Results taken from patent US12434040B2, “Applicator for a microneedle array patch delivery system” (VAXESS TECHNOLOGIES, INC., priority 2023, dated 2025).

Assays:
[1] = rat, in vivo, 220 ug
Protocol: (§1) The first study was a pilot study evaluating the impact of array size and dose per needle on the PK profile. Approximately 324 μg of GLP-1 was formulated in Form 1 and delivered with a 60 vs a 90-microneedle array (FIG. 25A). […] The second study was a pilot study evaluating˜5 μg per needle formulated in either Form 1 or Form 2 each delivered with a 61-microneedle array.
(§2) A follow up PK study, with more extensive sampling, particularly in the first 48 hours, was carried out next.
(§3) A dose matched sample formulated in Tris buffer delivered by the subcutaneous route was included as a comparator. MAP dose loading and delivery was confirmed by RP-HPLC (FIG. 26A, top panels). […] The inset in FIG. 26A plots the total area under the curve (AUC) which is a measure of the total exposure to drug product for each animal, for each treatment group and serves as an estimate of bioavailability.
(§4) Male Sprague-Dawley rats (n≥5) of approximately 350-450 g and male Göttingen mini-pigs of 25-30 kg (n≥3) are used in pharmacokinetic studies. […] Individual animal plasma concentration-time values are used to calculate plasma concentration-time data for each delivery route and analyzed by noncompartmental pharmacokinetics using standard PK software.

[2] = Rat PK studies (MAP vs subcutaneous), with body weights and application site observations; conditions: rat follow up study; target dose 220 μg
Protocol: as §1, §2, §3, §4

AUC (bioavailability) [1]: some variation in the AUC
Substance: semaglutide [SQ delivered GLP-1]
weight loss by Day 4 [2]: 10%
